Laboratory results as given in article PMC11730522 (BMC Pharmacology & Toxicology, 2025).

Assay: Pharmacokinetic study, plasma EZ levels by HPLC
Format: in vivo, rats

## O=C1[C@H](CC[C@H](O)c2ccc(F)cc2)[C@@H](c2ccc(O)cc2)N1c1ccc(F)cc1 [EZ, Ezetimibe]
After 4 h
  drop of plasma level of EZ from the highest level: 50%
rat, plasma, po, 10 mg/kg
  Tmax: 2 h
rats, oral
  peak plasma concentration of EZ: 24.36 ± 1.36 µg/mL
